Laboratory results as given in US20250144092A1, “TREATMENT OF PSYCHIATRIC OR NEUROLOGICAL DISORDERS IN PATIENTS WITH PROMINENT ANHEDONIA USING IRDABISANT AS A MONOTHERAPY OR IN COMBINATION WITH AN ANTIPSYCHOTIC AGENT” (Alto Neuroscience, Inc., priority 2023, published 2025).
Structures can show the parent of a compound that is named as a salt.

How the values were obtained:
[1] = test system: dopamine release in the striatum/nucleus accumbens; conditions: striatal microdialysis, literature reports; cited from earlier work
[2] = test system: dopamine release in the cortex; conditions: literature reports; cited from earlier work
[3] = test system: dopamine release in the nucleus accumbens; experiment: in vivo microdialysis in freely moving rats, dopamine efflux in nucleus accumbens; conditions: for dopamine release in the nucleus accumbens: basal conditions, IP administration, monitored 210 minutes
Protocol: To determine whether irdabisant (or pharmaceutically acceptable salt thereof, such as irdabisant hydrochloride) leads to dopamine release in the nucleus accumbens under basal conditions similar to those in which pitolisant, ABT-239 and JNJ-39220675 were tested and found to have no effect, in vivo microdialysis was performed in freely moving rats. Dopamine levels were monitored for 210 minutes following compound administration. Irdabisant hydrochloride was administered intraperitoneally (IP) at 0.001, 0.01, 0.3 and 10 mg/kg for 30 minutes following an IP vehicle (0.5% methylcellulose and 0.2% Tween 80) injection.
Male Sprague-Dawley albino rats weighing 250 to 350 g were housed two per cage and maintained in a controlled 12:12-h light/dark cycle and under constant temperature at 22° C., with free access to food and water. Rats were anesthetized with the modified Equithesin mixture (see, e.g., Li et al., Neuropsychopharm., 30, 1986-1995, 2005) and mounted in a stereotaxic frame. Stainless guide cannula with a dummy probe were placed and fixed by cranioplastic cement onto the cortex dorsal both to the medial prefrontal cortex (mPFC) and the nucleus accumbens (NAC). Rats received dual probe implantation for the mPFC and NAC (coordinates: A+3.2, L+0.8 (10° C. inclination), V-5.5 mm and A+2.0, L+1.5 to +1.7, V-7.5 mm, respectively, relative to bregma). Three to five days after cannulation, a dialysis probe was implanted into the mPFC and NAC under slight anesthesia with isoflurane. Rats were then housed individually overnight in a dialysis cage and the probes perfused with Dulbecco's phosphate-buffered saline solution with calcium (Sigma, St. Louis, MO) (138 mM NaCl, 8.1 mM Na2HPO4, 2.7 mM KCl, 1.5 mM KH2PO4, 0.5 mM MgCl2, 1.2 mM CaCl2), pH 7.4) at a rate of 0.4 μL/min. On the day of the experiment, the flow was increased to 1.5 μL/min. Sample collection began one hour later, and samples were collected every 30 min. After 60 min of stable baseline, each rat was dosed twice (indicated by arrows in FIG. 1-4); a vehicle dose at t=0 min., followed 30 minutes later by a dose of irdabisant hydrochloride. Dopamine (DA) and acetylcholine (Ach) samples, measured in the absence of cholinesterase inhibition, were monitored with HPLC coupled to mass spectrometry.
Data are presented as percentages of baseline from baseline to 180 minutes after treatment. Mean baseline levels (i.e., an average of 60, 30, and 0 minutes before injection) of DA and ACh in the mPFC and NAC were designated as 100%. Non-transformed data were analyzed at each dose by assessing the change relative to the mean baseline using a one-way repeated measures ANOVA followed by a Bonferroni's post-hoc test as implemented in the SigmaPlot version 11.0.0.77 statistical package (Systat Software, Inc., San Jose CA).

[4] = oral, after dosing; cited from earlier work
[5] = cited from earlier work

SMILES: C[C@@H]1CCCN1CCc1cc2cc(-c3ccc(C#N)cc3)ccc2o1 [ABT-239, (R)-4-(2-(2-(2-methyl-|-pyrrolidinyl)ethyl)-1-benzofuran-5-yl)benzonitrile]
- dopamine release in the nucleus accumbens [1]: lack of effect on dopamine release

SMILES: C(#Cc1ccc(CN2CCOCC2)cc1)CCN1CCCCC1.Cl.Cl [JNJ-10181457]
- dopamine release in the cortex [2]: do not

SMILES: O=C(c1ccc(Oc2ccc(F)cc2)nc1)N1CCCN(C2CCC2)CC1 [JNJ-39220675, (4-cyclobutyl-1,4-diazepan-1-yl) (6-(4-fluorophenoxy)pyridin3-yl) methanone]
- dopamine release in the nucleus accumbens [1]: lack of effect on dopamine release

SMILES: C[C@@H]1CCCN1CCCOc1ccc(-c2ccc(=O)[nH]n2)cc1 [irdabisant hydrochloride]
- elevation in dopamine levels relative to baseline ([3]; 0.01 mg/kg dose, 180 minutes post-dose, p=0.005, overall p<0.001): statistically significant elevation in dopamine levels
- elevation in dopamine levels relative to baseline ([3]; 0.3 mg/kg dose, 90 minute time point, p=0.02, overall p=0.003): significance
- maximal effect on nucleus accumbens dopamine efflux ([3]; 10 mg/kg IP dose): 205.6±6.86 % over basal
- elevation in dopamine levels relative to baseline ([3]; 10 mg/kg dose, 60, 90, 120 and 150 minute time points, overall p<0.001): significance was achieved
- threshold dose for nucleus accumbens dopamine efflux ([3]; IP): 0.01 mg/kg
- dopamine release in the nucleus accumbens [3]: increased dopamine release was observed

SMILES: C[C@@H]1CCCN1CCCOc1ccc(-c2ccc(=O)[nH]n2)cc1 [irdabisant, 6-{4-[3-((R)-2-methyl-pyrrolidin-1-yl)-propoxy]-phenyl}-2H-pyridazin-3-one]
- Tmax [4]: approximately 5 hours
- dopamine release in the nucleus accumbens [3]: increases dopamine release
- change over placebo on BL-VAS subscales ([5]; Baakman et al. 2019): increasing scores on BL-VAS alertness and contentedness/mood subscales
- subjective experiences and cognitive effects ([5]; healthy participants, after a single dose): promote positive subjective experiences and cognitive effects

SMILES: Clc1ccc(CCCOCCCN2CCCCC2)cc1 [pitolisant]
- dopamine release in the nucleus accumbens [1]: no increase in release of dopamine release
